Measured values published in patent US7893299B2, “Interleukin-1 and tumor necrosis factor-αmodulators; syntheses of such modulators and methods of using such modulators” (Nereus Pharmaceuticals, Inc., priority 2005, dated 2011).
Read-outs that look alike come from different tables or passages of the source.

Tests used:
[1] = tested on: Panc1 and HS766T; assay: TRAIL resistance of human pancreatic cancer cell lines; assay type: cell-based
Description: (§1) Novel diterpene inhibitors of NFκB derived from acanthoic acid (NPI-1342 (Formula IIB-a1) and NPI-1387; compound 24 under scheme 4 above) show measurable effects in human pancreatic cancer cell lines in vitro. Seven of the nine cell lines were moderately sensitive to apoptosis induced by death receptor ligand Tumor Necrosis Factor (TNF) related apoptosis-inducing ligand (TRAIL). […] Specific silencing of NFkB/p65 expression mimicked these effects. Furthermore, combination treatment of Salinosporamide A and either NPI-1342 or NPI-1387 led to induction of apoptosis as measured by PI FACS analysis. Specifically, levels of DNA fragmentation increased from 4% to 50% in HS766T cells and from 4% to 52% in Panc1 cells. The inhibitory effects of NPI-1342, NPI-1387 on NFκB were evaluated by Electromobility Shift Assays and confirmed by confocal microscopy.

[2] = tested on: HS766T cells; assay: apoptosis by PI FACS analysis, HS766T; assay type: cell-based, human; settings: combination treatment with Salinosporamide A, increased from 4%
Description: as §1

[3] = tested on: Panc1 cells; assay: apoptosis by PI FACS analysis, Panc1; assay type: cell-based, human; settings: combination treatment with Salinosporamide A, increased from 4%
Description: as §1

[4] = tested on: TNF-α and IL-1 production; settings: approximately 0.1 to approximately 1.0 microgram/ml for 48 hours; cited from earlier work
[5] = tested on: IL-6 or IFN-γ production; settings: under the same conditions; cited from earlier work
[6] = tested on: silicosis (chronic lung inflammation) and cirrhosis (liver inflammation and hepatic fibrosis); settings: mice with silicosis and cirrhosis; cited from earlier work
[7] = rat, in vivo; cited from earlier work
[8] = mice, cited from earlier work; for toxicity (in words): mice and rats

SMILES | TRAIL resistance [1] | levels of DNA fragmentation [2] | levels of DNA fragmentation [3] | inhibition of the TNF-α and IL-1 production [4] | production of IL-6 or IFN-γ [5] | histologic analysis: fibrotic granulomas and cirrotic liver cells [6] | minimum lethal dose (MLD) [7] | LD ([8]; orally) | toxicity (in words) [8] | toxicity (in words) ([8]; listed as Compound 1)
C=C[C@@]1(C)CCC=C2[C@H]1CC[C@@H]1[C@](C)(C(=O)NC3CCCCC3)CCC[C@@]21C (stereo in doubt) [Formula (IIB-A1), N-Cyclohexylamide Derivative of TTL] | reversed TRAIL resistance | 50% | 52% |  |  |  |  |  |  | 
C=C[C@@]1(C)CC=C2[C@@H](CC[C@@H]3[C@](C)(C(=O)O)CCC[C@@]23C)C1 [Formula (I), acanthoic acid] |  |  |  | approximately 90% | not affected | substantial reduction of fibrotic granulomas and a remarkable recovery of the cirrotic liver cells | 1000 mg/kg | > 300 mg/100 g of body weight | minimal toxicity | very little toxicity
